In ChEMBL document CHEMBL1152891, “Design of novel aminopyrrolidine factor Xa inhibitors from a screening hit” (Eur J Med Chem, 2009):
Values after ≈ are worked out from the molar mass of the structure shown.

Columns and labels:
[1] = Aqueous solubility of the compound; type: physicochemical
[2] = Lipophilicity, log D of the compound; type: physicochemical; conditions: octanol/water
[3] = Oral bioavailability in rat at 1 mg, po; type: ADME, organism-based; conditions: in vivo
[4] = Tmax in rat at 1 mg, po; type: ADME, organism-based; conditions: in vivo
[5] = Permeability across cell membrane; type: ADME; conditions: not told; read-out: permeability
[6] = Volume of distribution at steady state in rat at 0.5 mg, iv; type: ADME, organism-based; conditions: in vivo, read-out: Vdss
[7] = Volume of distribution at steady state in rat at 1 mg, iv; type: ADME, organism-based; conditions: in vivo, read-out: Vdss

## O=C(Cc1csc(NC(=O)c2ccc(Cl)s2)n1)Nc1ccc(-n2ccccc2=O)cc1F
[1]; aqueous, read-out: solubility
  solubility: < 1 µg/mL
[2]
  logD: > 3

## O=C(CN1C[C@H](NC(=O)c2ccc(Cl)s2)[C@@H](O)C1)Nc1ccc(-n2ccccc2=O)cc1F
[3]
  bioavailability: 38%
[4]
  Tmax: 15 min
[1]; buffer
  solubility: 516 µg/mL (≈ 1050 µM)
[5]
  Papp: 1.5 ×10⁻⁶ cm/s
[6]
  Vd: 1.1 L/kg

## O=C(CN1CC[C@@H](NC(=O)c2ccc(Cl)s2)C1)Nc1ccc(-n2ccccc2=O)cc1F
[1]; aqueous, read-out: solubility
  solubility: 197 µg/mL (≈ 415 µM)
[2]
  logD: 2.3

## O=C(Cn1ccc(NC(=O)c2ccc(Cl)s2)n1)Nc1ccc(-n2ccccc2=O)cc1F
[1]; aqueous, read-out: solubility
  solubility: < 1 µg/mL
[2]
  logD: > 3

## O=C(Cn1cnc(NC(=O)c2ccc(Cl)s2)n1)Nc1ccc(-n2ccccc2=O)cc1F
[3]
  bioavailability: 10%
[4]
  Tmax: 66 min
[1]; aqueous, read-out: solubility
  solubility: 1 µg/mL (≈ 2.11 µM)
[5]
  Papp: 0.9 ×10⁻⁶ cm/s
[2]
  logD: 2.4
[6]
  Vd: 0.3 L/kg

## O=C(Nc1nc(CC(=O)N2CCN(CC(=O)N3CCCC3)CC2)cs1)c1ccc(Cl)s1
[1]; aqueous, read-out: solubility
  solubility: > 640 µg/mL
[2]
  logD: 2.1

## O=C(Cn1nnc(NC(=O)c2ccc(Cl)s2)n1)Nc1ccc(-n2ccccc2=O)cc1F
[1]; aqueous, read-out: solubility
  solubility: < 1 µg/mL
[2]
  logD: 2.4

## CN1CCC(N2CCN(C(=O)Cc3csc(NC(=O)c4ccc(Cl)cc4)n3)CC2)CC1
[1]; aqueous, read-out: solubility
  solubility: > 620 µg/mL
[2]
  logD: 0.6

## O=C(Nc1nc(CC(=O)N2CCN(CC(=O)N3CCCC3)CC2)cs1)c1ccc(Cl)cc1
[1]; aqueous, read-out: solubility
  solubility: > 580 µg/mL
[2]
  logD: 2.2

## O=C(CN1CC[C@H](NC(=O)c2ccc(Cl)s2)C1)Nc1ccc(-n2ccccc2=O)cc1F
[1]; aqueous, read-out: solubility
  solubility: 166 µg/mL (≈ 350 µM)
[2]
  logD: 2.3

## CN1CCC(N2CCN(C(=O)Cn3cnc(NC(=O)c4ccc(Cl)s4)n3)CC2)CC1
[1]; aqueous, read-out: solubility
  solubility: > 600 µg/mL
[2]
  logD: -0.5

## O=C(Cc1csc(NC(=O)c2ccc(Cl)cc2)n1)Nc1ccc(-n2ccccc2=O)cc1F
[1]; aqueous, read-out: solubility
  solubility: < 1 µg/mL
[2]
  logD: > 3

## CN1CCC(N2CCN(C(=O)Cn3ccc(NC(=O)c4ccc(Cl)s4)n3)CC2)CC1
[1]; aqueous, read-out: solubility
  solubility: > 601 µg/mL
[2]
  logD: 0.1

## O=C(CN1C[C@H](NC(=O)c2ccc(Cl)s2)[C@@H](OCCO)C1)Nc1ccc(-n2ccccc2=O)cc1F
[3]
  bioavailability: 16%
[7]
  Vd: 1.1 L/kg
[4]
  Tmax: 15 min
[1]; buffer
  solubility: > 713 µg/mL
[5]
  Papp: 0.4 ×10⁻⁶ cm/s
[2]
  logD: 1.6

## CN1CCC(N2CCN(C(=O)Cc3csc(NC(=O)c4ccc(Cl)s4)n3)CC2)CC1
[1]; aqueous, read-out: solubility
  solubility: > 620 µg/mL
[2]
  logD: 1
